Assay results reported in US20200095296A1, “USE OF PEPTIDES AS BIOMARKERS IN THE DIAGNOSIS, CONFIRMATION AND TREATMENT OF A NEUROLOGICAL DISORDER AND TCR AND/OR HLA IMMUNOPROFILING IN NEURODEGENERATIVE DISEASE” (THE TRUSTEES OF COLUMBIA UNIVERSITY IN THE CITY OF NEW YORK, priority 2017, published 2020).
Where a chain is given by its changes, count along the chain named. Read-outs that look alike come from different tables or passages of the source.

Assays:
DPB1*03:01 = molecular target: T1, DPB1*03:01 (Homo sapiens, UniProt P04440+P20036, A65V/A84D/A85E/E86D/F38Y/G113D/G114E/G40L/I94L/L37V/M105V/M116V/P115A/R125K/T199I); test: competition binding assay, purified HLA DPB1*03:01
T1 sequence (P20036 29-260): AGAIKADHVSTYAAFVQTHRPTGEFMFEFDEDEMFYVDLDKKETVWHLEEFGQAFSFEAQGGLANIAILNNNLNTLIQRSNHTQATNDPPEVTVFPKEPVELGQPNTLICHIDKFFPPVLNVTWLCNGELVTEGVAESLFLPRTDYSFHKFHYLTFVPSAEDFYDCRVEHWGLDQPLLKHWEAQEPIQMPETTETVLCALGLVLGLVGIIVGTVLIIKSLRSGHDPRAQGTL
T1 sequence (P04440 30-258 L37V/F38Y/G40L/A65V/A84D/A85E/E86D/I94L/M105V/G113D/G114E/P115A/M116V/R125K/T199I): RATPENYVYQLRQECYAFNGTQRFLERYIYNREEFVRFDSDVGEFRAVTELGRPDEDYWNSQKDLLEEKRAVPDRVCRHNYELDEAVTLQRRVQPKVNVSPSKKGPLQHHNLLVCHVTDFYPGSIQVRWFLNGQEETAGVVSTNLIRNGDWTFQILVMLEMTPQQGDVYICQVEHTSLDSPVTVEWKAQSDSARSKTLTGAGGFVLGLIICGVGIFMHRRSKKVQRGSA

DRB1*07:01 = DRB1*07:01 (Homo sapiens, UniProt P01903+P01911, A100R/A102G/A103Q/D57E/D86V/E43K/F76Y/K127E/L162R/M171V/P40G/Q125H/Q99D/R33Q/R42Y/R54Q/S133A/S66F/T210M/V115G/Y107V/Y59L/Y89S); test: competition binding assay, purified HLA DRB1*07:01
DRB1*01:01 = DRB1*01:01 (Homo sapiens, UniProt P01903+P01911, A100R/D57E/F55L/F60I/F76Y/I96L/L162R/M171V/P40L/Q125E/R42F/V115G/Y59C); test: competition binding assay, purified HLA DRB1*01:01
DPB1*02:01 = molecular target: T2, DPB1*02:01 (Homo sapiens, UniProt P04440+P20036, A65V/A84D/A85E/K98E); test: competition binding assay, purified HLA DPB1*02:01
T2 sequence (P20036 29-260): T1 sequence (P20036 29-260)
T2 sequence (P04440 30-258 A65V/A84D/A85E/K98E): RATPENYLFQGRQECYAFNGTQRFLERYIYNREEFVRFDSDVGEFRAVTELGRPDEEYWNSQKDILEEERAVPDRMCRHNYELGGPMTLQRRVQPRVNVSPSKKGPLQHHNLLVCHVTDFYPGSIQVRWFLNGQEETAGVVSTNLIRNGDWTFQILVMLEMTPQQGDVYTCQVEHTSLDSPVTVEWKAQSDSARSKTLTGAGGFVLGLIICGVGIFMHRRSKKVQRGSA

DRB1*09:01 = DRB1*09:01 (Homo sapiens, UniProt P01903+P01911, A100R/A103E/D57H/D86V/F55Y/F60I/F76Y/I96F/K127E/L162R/M171V/P40D/Q125H/Q99R/R33Q/R42F/S133A/S66N/T210M/V115G/W38K/Y107V/Y59G/Y89S); test: competition binding assay, purified HLA DRB1*09:01
DRB1*12:01 = DRB1*12:01 (Homo sapiens, UniProt P01903+P01911, A100R/A169T/D57E/D86V/F55L/H45Y/K41T/L162R/M171V/P40S/Q125H/Q178H/Q39Y/Q99D/R42G/S66L/T262R/V114A/V67L/W38E/Y59H/Y61H/Y89S); test: competition binding assay, purified HLA DRB1*12:01
DPB1*04:02 = molecular target: T3, DPB1*04:02 (Homo sapiens, UniProt P04440+P20036, A65V/A84D/A85E/L207M); test: competition binding assay, purified HLA DPB1*04:02
T3 sequence (P04440 30-258 A65V/A84D/A85E/L207M): T2 sequence (P04440 30-258 A65V/A84D/A85E/K98E) with E69K, L178M
T3 sequence (P20036 29-260): T1 sequence (P20036 29-260)

DRB1*13:02 = DRB1*13:02 (Homo sapiens, UniProt P01903+P01911, A100E/A169T/K41T/L162R/M171V/P40S/Q125H/Q178H/Q39Y/Q99D/R42S/S66N/T262R/V115G/W38E/Y61H); test: competition binding assay, purified HLA DRB1*13:02
DRB1*11:01 = DRB1*11:01 (Homo sapiens, UniProt P01903+P01911, A100R/A169T/A87E/I96F/K41T/L162R/M171V/P40S/Q125H/Q178H/Q39Y/Q99D/R42S/S66Y/T262R/V115G/W38E); test: competition binding assay, purified HLA DRB1*11:01
DRB1*04:05 = DRB1*04:05 (Homo sapiens, UniProt P01903+P01911, A100R/A169T/D86S/F76Y/I96L/K127E/L162R/M171V/N62H/P40V/Q125Y/R42H/S133A/S149N/S66Y/V115G/V209L/W38E); test: competition binding assay, purified HLA DRB1*04:05
DRB4*01:01 = DRB4*01:01 (Homo sapiens, UniProt P01903+P13762, G164S); test: competition binding assay, purified HLA DRB4*01:01
DPB1*04:01 = molecular target: T4, DPB1*04:01 (Homo sapiens, UniProt P04440); test: competition binding assay, purified HLA DPB1*04:01
T4 sequence (P04440 30-258): T2 sequence (P04440 30-258 A65V/A84D/A85E/K98E) with V36A, D55A, E56A, E69K
T4 sequence (P20036 29-260 partner): T1 sequence (P20036 29-260)

[1] = purified HLA, radiolabeled peptide competition, nM, read-out: binding to DRB1*07:01 (IC50)
[2] = purified HLA, radiolabeled peptide competition, nM, read-out: binding to DRB1*01:01 (IC50)
[3] = purified HLA, radiolabeled peptide competition, nM, read-out: binding to DRB1*09:01 (IC50)
[4] = purified HLA, radiolabeled peptide competition, nM, read-out: binding to DRB1*12:01 (IC50)
[5] = purified HLA, radiolabeled peptide competition, nM, read-out: binding to DRB1*13:02 (IC50)
[6] = purified HLA, radiolabeled peptide competition, nM, read-out: binding to DRB1*11:01 (IC50)
[7] = purified HLA, radiolabeled peptide competition, nM, read-out: binding to DRB1*04:05 (IC50)
[8] = purified HLA, radiolabeled peptide competition, nM, read-out: binding to DRB4*01:01 (IC50)

Compound	IC50 (DPB1*03:01) [nM]	IC50 (DRB1*07:01; [1]) [nM]	IC50 (DRB1*01:01; [2]) [nM]	IC50 (DPB1*02:01) [nM]	IC50 (DRB1*09:01; [3]) [nM]	IC50 (DRB1*12:01; [4]) [nM]	IC50 (DPB1*04:02) [nM]	IC50 (DRB1*13:02; [5]) [nM]	IC50 (DRB1*11:01; [6]) [nM]	IC50 (DRB1*04:05; [7]) [nM]	IC50 (DRB4*01:01; [8]) [nM]	IC50 (DPB1*04:01) [nM]	also measured
CSCC[C@H](NC(=O)[C@@H](N)CCC(=O)O)C(=O)N1CCC[C@H]1C(=O)N[C@@H](COP(=O)(O)O)C(=O)N[C@@H](CCC(=O)O)C(=O)N[C@@H](CCC(=O)O)C(=O)NCC(=O)N[C@@H](Cc1ccc(O)cc1)C(=O)N[C@@H](CCC(N)=O)C(=O)N[C@@H](CC(=O)O)C(=O)N[C@@H](Cc1ccc(O)cc1)C(=O)N[C@@H](CCC(=O)O)C(=O)N1CCC[C@H]1C(=O)N[C@@H](CCC(=O)O)C(=O)N[C@@H](C)C(=O)O	> 10000	> 10000	> 10000	> 10000	> 10000	> 10000	> 10000	> 10000	> 10000	> 10000	> 10000	> 10000	
CSCC[C@H](NC(=O)[C@H](CCC(=O)O)NC(=O)[C@H](Cc1ccc(O)cc1)NC(=O)[C@H](C)NC(=O)[C@H](CCC(=O)O)NC(=O)[C@H](CC(N)=O)NC(=O)[C@@H](N)CC(=O)O)C(=O)N1CCC[C@H]1C(=O)N[C@@H](COP(=O)(O)O)C(=O)N[C@@H](CCC(=O)O)C(=O)N[C@@H](CCC(=O)O)C(=O)NCC(=O)N[C@@H](Cc1ccc(O)cc1)C(=O)N[C@@H](CCC(N)=O)C(=O)N[C@@H](CC(=O)O)C(=O)O		> 10000	> 10000		> 10000	> 10000		> 10000	> 10000	> 10000	> 10000		IC50 (DPB1*03:01; purified HLA, radiolabeled peptide competition, nM, read-out: binding to DPB1*03:01 (IC50)): > 10000 nM; IC50 (DPB1*02:01; purified HLA, radiolabeled peptide competition, nM, read-out: binding to DPB1*02:01 (IC50)): > 10000 nM; IC50 (DPB1*04:02; purified HLA, radiolabeled peptide competition, nM, read-out: binding to DPB1*04:02 (IC50)): > 10000 nM; IC50 (DPB1*04:01; purified HLA, radiolabeled peptide competition, nM, read-out: binding to DPB1*04:01 (IC50)): > 10000 nM
CSCC[C@H](NC(=O)[C@H](CCC(=O)O)NC(=O)[C@H](Cc1ccc(O)cc1)NC(=O)[C@H](C)NC(=O)[C@H](CCC(=O)O)NC(=O)[C@H](CC(N)=O)NC(=O)[C@@H](N)CC(=O)O)C(=O)N1CCC[C@H]1C(=O)N[C@@H](CO)C(=O)N[C@@H](CCC(=O)O)C(=O)N[C@@H](CCC(=O)O)C(=O)NCC(=O)N[C@@H](Cc1ccc(O)cc1)C(=O)N[C@@H](CCC(N)=O)C(=O)N[C@@H](CC(=O)O)C(=O)O	> 10000			> 10000			> 10000					> 10000	IC50 (DRB1*07:01): > 10000 nM; IC50 (DRB1*01:01): > 10000 nM; IC50 (DRB1*09:01): 4600 nM; IC50 (DRB1*12:01): > 10000 nM; IC50 (DRB1*13:02): > 10000 nM; IC50 (DRB1*11:01): > 10000 nM; IC50 (DRB1*04:05): 1940 nM; IC50 (DRB4*01:01): > 10000 nM
